Experimental data published in patent US4395417A, “Antihyperlipidemic compositions” (Research Corporation, priority 1980, dated 1983).
Read-outs that look alike come from different tables or passages of the source.

Key:
[1] = system: serum cholesterol; experiment: Serum cholesterol of male CF1 mice (Liebermann-Burchard reaction); type: in vivo; conditions: Mus musculus, ip
Method: (§1) For hypolipidemic activity, the compounds were tested at 20 mg/kg/day administered I.P. to male CF1 mice (~30 g). On days 9 and 16 blood was collected by tail-vein bleeding. Serum cholesterol was determined by the Liebermann-Burchard reaction. Serum triglyceride levels were determined using the Hycel commercial kits on a separate group of mice, which were bled on day 14.

[2] = system: serum triglyceride; experiment: Serum triglyceride levels of male mice (Hycel commercial kits); type: in vivo, male CF1 mice; conditions: Mus musculus, ip, 336 h
Method: as §1

[3] = molecular target: T1, Acetyl-CoA Synthetase (Mus musculus, UniProt Q9QXG4); experiment: In vitro acetyl coenzyme A synthetase activity (method of Goodridge); type: biochemical, mice; conditions: for Acetyl-CoA Synthetase: Table 2, N = 6, x ± S.D., control 28.5 mg acetyl CoA formed/gm wet tissue/30 min.; for in vitro AcCoA synthetase: Table 3, N = 6, control 10.8 mg/g wet tissue
T1 construct: gm wet tissue/30 min; from tissue
T1 sequence (Q9QXG4 whole entry): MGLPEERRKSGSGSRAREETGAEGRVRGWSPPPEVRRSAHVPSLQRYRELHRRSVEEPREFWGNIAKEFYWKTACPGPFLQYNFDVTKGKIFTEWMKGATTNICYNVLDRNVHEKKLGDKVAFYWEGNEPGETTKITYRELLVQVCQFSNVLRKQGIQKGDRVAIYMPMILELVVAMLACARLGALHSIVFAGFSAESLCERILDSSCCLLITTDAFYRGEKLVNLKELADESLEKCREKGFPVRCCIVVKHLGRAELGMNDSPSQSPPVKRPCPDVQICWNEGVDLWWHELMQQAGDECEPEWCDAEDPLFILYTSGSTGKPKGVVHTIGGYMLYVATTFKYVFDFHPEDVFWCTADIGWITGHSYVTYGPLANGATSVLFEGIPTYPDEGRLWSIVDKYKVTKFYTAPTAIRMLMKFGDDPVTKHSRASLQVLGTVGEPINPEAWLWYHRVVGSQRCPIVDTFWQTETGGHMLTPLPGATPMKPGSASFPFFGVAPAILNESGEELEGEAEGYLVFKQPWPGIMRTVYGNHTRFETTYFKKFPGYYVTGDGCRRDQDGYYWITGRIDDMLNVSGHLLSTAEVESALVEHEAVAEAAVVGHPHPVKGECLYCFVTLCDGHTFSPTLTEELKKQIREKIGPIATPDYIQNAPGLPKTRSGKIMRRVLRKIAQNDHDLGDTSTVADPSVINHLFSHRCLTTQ

[4] = molecular target: T2, Citrate Lyase (Mus musculus, UniProt Q91V92); experiment: In vitro effect on citrate lyase; type: biochemical; conditions: Table 2, N = 6, x ± S.D., control 30.5 mg of citrate hydrolyzed/gm wet tissue/30 min.
T2 construct: 30.5 mg of citrate hydrolyzed/gm wet tissue/30 min; from tissue
T2 sequence (Q91V92 1-1091): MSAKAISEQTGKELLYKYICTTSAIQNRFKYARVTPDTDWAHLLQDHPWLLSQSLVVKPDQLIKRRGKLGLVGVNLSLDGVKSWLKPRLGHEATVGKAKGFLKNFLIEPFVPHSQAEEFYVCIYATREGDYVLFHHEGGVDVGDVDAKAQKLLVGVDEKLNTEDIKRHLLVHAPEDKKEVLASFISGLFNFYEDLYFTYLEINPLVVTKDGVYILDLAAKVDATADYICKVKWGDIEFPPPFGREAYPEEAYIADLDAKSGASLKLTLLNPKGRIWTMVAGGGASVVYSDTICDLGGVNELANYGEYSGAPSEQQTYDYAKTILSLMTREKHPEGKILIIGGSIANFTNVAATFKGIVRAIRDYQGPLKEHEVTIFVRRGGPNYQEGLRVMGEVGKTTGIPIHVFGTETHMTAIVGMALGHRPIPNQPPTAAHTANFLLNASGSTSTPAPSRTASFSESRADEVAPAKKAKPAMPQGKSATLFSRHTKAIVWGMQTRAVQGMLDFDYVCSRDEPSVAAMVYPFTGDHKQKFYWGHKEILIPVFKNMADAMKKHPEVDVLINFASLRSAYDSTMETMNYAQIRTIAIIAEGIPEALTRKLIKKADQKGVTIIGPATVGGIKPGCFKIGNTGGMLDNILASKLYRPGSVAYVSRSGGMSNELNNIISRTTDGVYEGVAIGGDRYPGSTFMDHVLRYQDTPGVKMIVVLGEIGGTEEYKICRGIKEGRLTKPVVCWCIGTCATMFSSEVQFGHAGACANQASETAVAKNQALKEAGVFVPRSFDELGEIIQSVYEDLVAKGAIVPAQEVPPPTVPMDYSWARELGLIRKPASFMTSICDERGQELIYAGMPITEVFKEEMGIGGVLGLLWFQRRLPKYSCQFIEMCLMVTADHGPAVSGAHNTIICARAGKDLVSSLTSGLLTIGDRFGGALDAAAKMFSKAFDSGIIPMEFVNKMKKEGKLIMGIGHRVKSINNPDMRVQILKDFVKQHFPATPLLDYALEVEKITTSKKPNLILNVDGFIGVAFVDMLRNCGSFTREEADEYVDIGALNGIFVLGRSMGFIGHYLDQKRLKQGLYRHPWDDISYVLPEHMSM

[5] = molecular target: T3, Acetyl-CoA Carboxylase (Mus musculus, UniProt Q5SWU9); experiment: In vitro acetyl coenzyme A carboxylase activity (method of Greenspan and Lowenstein); type: biochemical; conditions: Table 2, N = 6, x ± S.D., control 32,010 dpm/gm wet tissue/30 min.
T3 construct: 32,010 dpm/gm wet tissue/30 min; from tissue

[6] = molecular target: T4, Fatty Acid Synthetase (Mus musculus, UniProt P19096); experiment: In vitro effect on fatty acid synthetase; type: biochemical; conditions: Table 2, N = 6, x ± S.D.
T4 construct: gm wet tissue/30 min; from tissue
T4 sequence (P19096 whole entry): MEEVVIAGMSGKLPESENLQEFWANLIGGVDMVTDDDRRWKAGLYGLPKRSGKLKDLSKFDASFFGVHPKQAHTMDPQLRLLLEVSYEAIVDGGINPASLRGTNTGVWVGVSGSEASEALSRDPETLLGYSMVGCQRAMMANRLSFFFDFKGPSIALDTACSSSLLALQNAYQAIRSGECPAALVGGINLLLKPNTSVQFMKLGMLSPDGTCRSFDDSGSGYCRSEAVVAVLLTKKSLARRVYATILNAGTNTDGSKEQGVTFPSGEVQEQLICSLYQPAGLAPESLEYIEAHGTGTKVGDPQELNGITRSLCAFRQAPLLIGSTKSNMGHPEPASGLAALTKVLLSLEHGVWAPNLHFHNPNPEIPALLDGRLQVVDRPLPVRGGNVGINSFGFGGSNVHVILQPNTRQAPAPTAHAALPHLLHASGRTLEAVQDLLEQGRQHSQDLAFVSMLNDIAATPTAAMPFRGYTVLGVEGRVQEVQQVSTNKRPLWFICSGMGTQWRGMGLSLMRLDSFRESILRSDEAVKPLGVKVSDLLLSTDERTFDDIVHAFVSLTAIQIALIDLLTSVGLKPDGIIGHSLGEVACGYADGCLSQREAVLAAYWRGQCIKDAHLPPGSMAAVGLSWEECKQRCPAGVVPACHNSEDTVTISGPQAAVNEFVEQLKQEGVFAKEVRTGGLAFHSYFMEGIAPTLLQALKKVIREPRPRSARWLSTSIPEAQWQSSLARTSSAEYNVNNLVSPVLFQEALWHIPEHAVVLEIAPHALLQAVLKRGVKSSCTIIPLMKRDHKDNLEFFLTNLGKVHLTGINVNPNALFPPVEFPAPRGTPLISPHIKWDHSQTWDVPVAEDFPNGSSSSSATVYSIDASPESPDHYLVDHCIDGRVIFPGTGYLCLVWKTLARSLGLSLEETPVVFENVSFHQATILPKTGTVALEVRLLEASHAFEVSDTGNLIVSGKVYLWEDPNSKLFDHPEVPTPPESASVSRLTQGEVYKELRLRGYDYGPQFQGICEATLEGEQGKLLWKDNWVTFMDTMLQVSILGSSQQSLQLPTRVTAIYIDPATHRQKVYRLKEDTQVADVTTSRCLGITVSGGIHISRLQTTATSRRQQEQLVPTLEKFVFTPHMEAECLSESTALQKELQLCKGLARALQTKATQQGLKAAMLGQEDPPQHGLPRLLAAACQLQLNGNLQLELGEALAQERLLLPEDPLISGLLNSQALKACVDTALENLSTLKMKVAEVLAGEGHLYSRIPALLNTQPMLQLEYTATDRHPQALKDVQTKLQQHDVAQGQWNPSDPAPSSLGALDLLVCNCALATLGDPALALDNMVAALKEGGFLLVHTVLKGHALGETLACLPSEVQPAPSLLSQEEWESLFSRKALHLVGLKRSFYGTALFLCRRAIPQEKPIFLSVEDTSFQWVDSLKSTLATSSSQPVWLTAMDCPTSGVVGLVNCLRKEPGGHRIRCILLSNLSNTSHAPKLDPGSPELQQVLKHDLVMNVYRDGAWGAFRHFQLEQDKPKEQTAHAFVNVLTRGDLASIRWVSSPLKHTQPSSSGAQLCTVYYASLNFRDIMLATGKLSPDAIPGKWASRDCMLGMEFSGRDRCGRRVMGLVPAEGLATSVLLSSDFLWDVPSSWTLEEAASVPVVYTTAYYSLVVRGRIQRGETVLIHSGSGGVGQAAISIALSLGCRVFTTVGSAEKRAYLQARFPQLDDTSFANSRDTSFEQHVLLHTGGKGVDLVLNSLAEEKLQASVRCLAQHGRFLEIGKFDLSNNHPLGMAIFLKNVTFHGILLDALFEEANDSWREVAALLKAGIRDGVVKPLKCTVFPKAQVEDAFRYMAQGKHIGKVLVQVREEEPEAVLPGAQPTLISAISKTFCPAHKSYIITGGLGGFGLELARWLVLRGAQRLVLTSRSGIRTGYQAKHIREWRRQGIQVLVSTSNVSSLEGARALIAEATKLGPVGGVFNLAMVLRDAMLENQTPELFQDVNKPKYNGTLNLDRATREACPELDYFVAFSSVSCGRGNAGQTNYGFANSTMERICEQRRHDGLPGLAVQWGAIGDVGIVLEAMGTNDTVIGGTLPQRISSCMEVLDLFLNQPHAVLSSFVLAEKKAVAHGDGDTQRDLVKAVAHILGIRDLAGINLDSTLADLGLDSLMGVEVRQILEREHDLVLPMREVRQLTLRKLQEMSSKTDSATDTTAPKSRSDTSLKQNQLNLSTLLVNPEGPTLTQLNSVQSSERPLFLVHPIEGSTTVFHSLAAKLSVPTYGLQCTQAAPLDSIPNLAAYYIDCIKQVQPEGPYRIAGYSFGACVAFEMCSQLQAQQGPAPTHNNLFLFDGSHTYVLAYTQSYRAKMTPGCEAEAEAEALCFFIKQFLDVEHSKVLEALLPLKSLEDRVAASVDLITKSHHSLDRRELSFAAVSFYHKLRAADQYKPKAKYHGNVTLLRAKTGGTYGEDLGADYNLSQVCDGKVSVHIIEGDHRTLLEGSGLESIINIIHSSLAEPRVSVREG

[7] = Acute toxicity (LD50) in mice; type: in vivo; conditions: mouse, in vivo
Excerpt: (§2) They also are non-toxic. […] Moreover, there is no evidence that the weight of any of the major organs is altered as a result of treatment with compounds used in the invention.

[8] = system: mice; experiment: Acute toxicity (LD50) in mice; type: in vivo; conditions: 2 g/kg
Excerpt: as §2

[9] = Size of vas deferens, vesicular or testes after 16 day treatment in mice; type: in vivo; conditions: 16 day treatment at 10 (mg/kg)/day
[10] = system: ovariectomized immature females; experiment: Uterotropic effects in ovariectomized immature females; type: in vivo, mice; conditions: 20 mg/kg
[11] = Hypertrophy of the adrenal; design: species or system mice; conditions: mouse, in vivo
[12] = 216 h, Table 1, 20 mg/kg/day I.P., male CF1 mice, N = 6, 9th day, control value 118 mg %, read-out: Serum Cholesterol, 9th day
[13] = 216 h, Table 3, mice, N = 6, 9th day, control 115 mg %, read-out: serum cholesterol, 9th day
[14] = 384 h, Table 1, 20 mg/kg/day I.P., male CF1 mice, N = 6, 16th day, control value 122 mg %, read-out: Serum Cholesterol, 16th day
[15] = 384 h, Table 3, mice, N = 6, 16th day, control 118 mg %, read-out: serum cholesterol, 16th day
[16] = Table 1, 20 mg/kg/day I.P., male mice, N = 6, 14th day, control value 137 mg %, read-out: Serum Triglyceride, 14th day
[17] = Table 3, mice, N = 6, control 138 mg %, read-out: serum triglycerides

in vitro AcCoA synthetase [3] | Compound | response vs control in vivo at 20 mg/kg/day [1, 12] | response vs control in vivo at 20 mg/kg/day [1, 13] | response vs control in vivo at 20 mg/kg/day [1, 14] | response vs control in vivo at 20 mg/kg/day [1, 15] | response vs control in vivo at 20 mg/kg/day [2, 16] | response vs control in vivo at 20 mg/kg/day [2, 17] | Acetyl-CoA Synthetase [3] | Citrate Lyase [4] | Acetyl-CoA Carboxylase [5] | Fatty Acid Synthetase [6] | LD50 [7] | deaths [8] | decrease in the size of the vas deferens, vesicular or testes [9] | uterotropic effects [10] | hypertrophy of the adrenal [11]
57 ± 7 % Control | O=C(O)CCN1C(=O)c2ccccc2C1=O [3-N--Phthalimidopropionic Acid] | 74 ± 10% | 74 ± 7% | 55 ± 12% | 55 ± 11% | 58 ± 9% | 58 ± 10% | 57 ± 10 % Control | 87 ± 6 % Control | 18 ± 4 % Control | 107 ± 7 % Control |  |  |  |  | 
82 ± 7 % Control | CCCCN1C(=O)c2ccccc2C1=O [N--n-Butylphthalimide] | 72 ± 11% | 72 ± 10% | 54 ± 6% | 54 ± 6% | 82 ± 10% | 82 ± 16% | 44 ± 11 % Control | 72 ± 9 % Control | 76 ± 3 % Control | 75 ± 10 % Control |  |  |  |  | 
 | O=C1NC(=O)c2ccccc21 [Phthalimide] | 63 ± 13% |  | 57 ± 7% |  | 44 ± 8% |  | 70 ± 8 % Control | 42 ± 6 % Control | 8 ± 4 % Control | 105 ± 8 % Control |  |  |  |  | 
 | O=C1NS(=O)(=O)c2ccccc21 [Saccharin] | 68 ± 11% |  | 67 ± 10% |  | 51 ± 16% |  | 61 ± 7 % Control | 65 ± 6 % Control | 9 ± 2 % Control | 93 ± 5 % Control |  |  |  |  | 
 | O=C1CCC(=O)N1 [Succinimide] | 78 ± 9% |  | 73 ± 12% |  | 68 ± 7% |  | 74 ± 6 % Control | 38 ± 3 % Control | 87 ± 7 % Control | 98 ± 9 % Control |  |  |  |  | 

Compound | in vitro AcCoA synthetase [3] | response vs control in vivo at 20 mg/kg/day [1, 12] | response vs control in vivo at 20 mg/kg/day [1, 13] | response vs control in vivo at 20 mg/kg/day [1, 14] | response vs control in vivo at 20 mg/kg/day [1, 15] | response vs control in vivo at 20 mg/kg/day [2, 16] | response vs control in vivo at 20 mg/kg/day [2, 17] | Acetyl-CoA Synthetase [3] | Citrate Lyase [4] | Acetyl-CoA Carboxylase [5] | Fatty Acid Synthetase [6] | LD50 [7] | deaths [8] | decrease in the size of the vas deferens, vesicular or testes [9] | uterotropic effects [10] | hypertrophy of the adrenal [11]
CC(=O)CN1C(=O)c2ccccc2C1=O [1-N--Phthalimidopropan-2-one] | 58 ± 7 % Control | 80 ± 16% | 80 ± 16% | 67 ± 12% | 67 ± 12% | 48 ± 10% | 48 ± 10% | 58 ± 7 % Control | 76 ± 4 % Control | 24 ± 4 % Control | 91 ± 9 % Control | > 2000 mg/kg | no deaths were observed at this concentration | no decrease in the size of the vas deferens, vesicular or testes | nor did the drug demonstrate uterotropic effects | no hypertophy of the adrenal
